pIC50: −log10 of the molar value. Entries after “also recorded” stand apart in the source; their conditions may differ. Read-outs that look alike come from different tables or passages of the source.
Assays:
[1] = system: OSM-mediated STAT3 phosphorylation in MCF-7 cells; experiment: pSTAT3 ELISA in MCF-7 cells treated with OSM ± SMI; format: cell-based; settings: Homo sapiens, MCF7
Method: (§1) For phospho-STAT3 (pSTAT3) ELISAs, T47D MDA-MB-231, and MCF-7 cells were seeded in 12- or 24-well plates at 70–75% confluency and allowed to adhere overnight, after which cells were serum-starved with serum-free RPMI-1640 for 4 h. SMIs (10 μM in DMSO or serially diluted to specified concentrations from a 100 mM stock in DMSO) and human recombinant OSM (10 ng/mL; PeproTech; #300–10T-10UG) were incubated in serum-free RPMI-1640 medium for 1 h. After incubation, the SMI-10 analogs or SMI-10B13 and OSM were added to the serum-starved cells for 30 min. Immediately afterward, the cells were lysed using 1x PathScan Sandwich ELISA Lysis Buffer (Cell Signaling Technology; #7018S), collected, and stored at −20 °C. Lysates were analyzed for pSTAT3 levels using either the PathScan Phospho-STAT3 (Tyr705) Sandwich ELISA Antibody Pair kit (Cell Signaling Technology; #7146) or Human/Mouse Phospho-STAT3 (Y705) DuoSet IC ELISA (R&D Systems; DYC4607B), according to manufacture’s protocol. pSTAT3 expression was measured with absorbance at 450 nm and quantified by comparison relative to OSM-induced pSTAT3 levels. To calculate an IC50 for SMI-10B13, a standard curve was generated as described in the DuoSet IC ELISA datasheet to determine the concentration of pSTAT3.

[2] = biological target: T1, gp130 binding to immobilized OSM (Homo sapiens, UniProt P13725); experiment: SPR surface competition binding assay between gp130 and SMI for immobilized OSM; settings: gp130 50 nM
T1 construct: purchased R&D Systems 671-GP
T1 sequence (P13725 26-212 limits assumed): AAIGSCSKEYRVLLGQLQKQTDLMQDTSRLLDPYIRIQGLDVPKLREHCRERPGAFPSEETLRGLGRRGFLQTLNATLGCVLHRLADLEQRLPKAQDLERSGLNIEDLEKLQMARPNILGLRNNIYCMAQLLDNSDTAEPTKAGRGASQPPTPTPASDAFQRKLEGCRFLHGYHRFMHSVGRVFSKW
Method: SPR experiments were performed on a Reichert SR7000 instrument that was fed by a Surveyor LC autosampler and pump. All experiments were conducted at 25 °C. In all experiments, OSM (∼24 kDa; as previously described) was immobilized to the surface of a PEF-10% carboxyl mixed self-assembled monolayer gold sensor chip (Reichert part #13206061), and the experiments were completed within 3 days. The immobilization phase was conducted using sterile-filtered, fresh 10 mM acetate buffer, pH 5, at a flow rate of 15 μL/min. The chip was first washed with 100 μL of 2 M NaCl in DI water and 100 μL of 10 mM NaOH in DI water. The chip was activated with a 100 μL injection of 10 mg/mL N-hydroxysuccinimide (NHS) and 40 mg/mL 1-ethyl-3-(3-dimethylaminopropyl)­carbodiimide (EDC) mixed in 1 mL of nanopure water immediately before injecting. Then, a 200 μg/mL solution of OSM (100–300 μL) in acetate buffer was diluted and injected multiple times with 100 μL injections to achieve a response of about 600–1000 RU. The remaining reactive NHS groups were then deactivated with a 100 μL injection of 1 M ethanolamine hydrochloride in DI H2O. […] The real-time changes in refractive index units of the association and dissociation phases were monitored. […]

[3] = system: OSM-mediated signaling (pSTAT3, pAKT, pJNK, pERK) in T47D cells; experiment: Immunoblot of OSM-mediated signaling in T47D cells; format: cell-based, human; settings: SMI 10 μM, OSM 10 ng/mL, 30 min
Method: For immunoblot analysis, T47D breast cancer cells were treated and collected in the same manner as described above for the ELISA preparation. After lysate collection, samples were run on a 10% SDS-PAGE gel and transferred to a nitrocellulose membrane via semidry transfer. Blots were rinsed with DI H2O and allowed to completely dry at room temperature before blocking with LiCor Intercept PBS Blocking Buffer (LiCor, Lincoln, NE; Cat# 927-90001) for 1 h. After blocking, primary antibodies (1:1000) suspended in blocking buffer supplemented with 0.1% Tween were added, shaken at room temperature for 1 h, and stored at 4 °C overnight. Membranes were then washed 6 times for 5 minutes each with 1X PBS supplemented with 0.5% Tween while shaking at room temperature, and secondary antibodies (1:15,000) were applied and incubated for 1 h. Afterward, membranes were washed as previously described above and imaged at 700 nm using the LiCor Odyssey CLx Imaging System. Quantification of immunoblots was performed using the LiCor Image Studio software, normalizing to β-Actin, and calculating relative fold change compared to nontreated samples. Antibodies used included phospho-STAT3 (Y705) (Cell Signaling Technology, Danvers, MA; cat. no. 9145), phospho-AKT (S473) (Cell Signaling Technology, Danvers, MA; cat. no. 4060), phospho-JNK ([…]/[…]) (Cell Signaling Technology, Danvers, MA; cat. no. 4668), phospho-ERK (T202/Y204) (Cell Signaling Technology, Danvers, MA; cat. no. 9101), β-Actin (Cell Signaling Technology; cat. no. 3700), and donkey antirabbit IRDye 800CW (LiCor, Lincoln, NE; Cat# 925-32213).

[4] = system: OSM-induced pSTAT3 in MDA-MB-231 human breast cancer cells; experiment: pSTAT3 ELISA in MDA-MB-231 cells treated with OSM ± SMI; format: cell-based; settings: SMI 10 μM, OSM 10 ng/mL, 30 min
Method: as §1, with “2 High-throughput virtual screening identifies three novel compounds capable of interacting with site III of OSM. […] (F) Structure of parent SMI-10. Data are presented as mean ± SD relative to + OSM treatment, analyzed by one-way ANOVA with Tukey’s posttest *p < 0.05, **p < 0.01. To test the effect of SMIs in vitro, each SMI was incubated with OSM for a period of 1 h at 37 °C, and T47D and MDA-MB-231 human breast cancer cell lines were subsequently treated with OSM (10 ng/mL) and/or SMI-10 (10 μM) analogs for 30 min and measured for pSTAT3 levels via ELISA. The results of these assays are presented graphically in Figure and, for T47D cells, in Table as a percentage of reduction from +OSM alone. For” for “For”

Row | Compound | IC50 ([1]; Figure S3 graph B (MCF-7 by order), four parameter nonlinear regression, given as negative log value, read-out: LogIC50 (graph B) (converted)) [nM] | pIC50 ([1]; MCF-7 cells, ELISA, read-out: IC50 for inhibition of STAT3 phosphorylation) | Inhibition of gp130 binding to immobilized OSM ([2]; SMI 100 μM) | pIC50 ([2]; SPR surface competition, estimated, read-out: estimated IC50 for inhibition of gp130 binding to immobilized OSM) | Inhibition of OSM-mediated signaling cascades by immunoblot (words) [3] | Inhibition of OSM-mediated signaling cascades by immunoblot (words) ([3]; listed as 10B) | Inhibition of OSM-induced pSTAT3 via ELISA [4]
1 | O=C(O)/C=C/c1cc(-c2ccc3cc[nH]c3c2)c(-c2ccc3cc[nH]c3c2)o1 [SMI-10B13, (E)-3-(4,5-di(1H-Indol-6-yl)furan-2-yl)acrylic Acid] | 164 | 6.79 | almost completely inhibited | 4.00 to 4.52 | most effective; also recorded: better at inhibiting pSTAT3, pAKT, pJNK, and pERK signaling |  | 
2 | O=C(O)/C=C/c1cc(-c2ccc3c(c2)OCO3)c(-c2ccc3c(c2)OCO3)o1 [SMI-10B, (E)-3-(4,5-Bis(benzo[d][1,3]dioxol-5-yl)furan-2-yl)acrylic acid] |  |  |  |  | significant reductions, near nontreated levels | capable of inhibiting multiple cascades | capable of inhibiting OSM-induced pSTAT3

From paper PMC12362618, “Development of the First Small-Molecule Inhibitor Targeting Oncostatin M for Treatment of Breast Cancer” (Journal of Medicinal Chemistry, 2025)
